Reference: patent US4038395A, “Compositions of and method of treating with the alpha-isomer of 2-chloro-9-[3'-(N'-2-hydroxyethylpiperazino-N)-propylidene]-thiaxanthene , carboxylic acid esters thereof and acid addition salts of these compounds” (Kefalas A/S, priority 1973, dated 1977)
Structures can show the parent of a compound that is named as a salt. Where two headings read alike, the source gives them in different places.

Key:
[1] = test system: apomorphine-induced vomiting in dogs; test: Apomorphine antagonism in dogs (vomiting); type: in vivo, Adult purebred Beagles
Protocol: Adult purebred Beagles of either sex from our own stock were used.
Four dogs were used for each dose level of the drug, which was injected subcutaneously at the back of the neck. At different times after the drug administration the dogs were then challenged with apomorphine according to an "up and down"-schedule using the dose-range 25-400 μg/kg i.v. geometrically spaced. […] In this way it was possible to estimate at which level of apomorphine the dogs were protected at a given time. The dogs were fed half an hour before testing to secure an easy vomiting act.

[2] = test system: methylphenidate-induced stereotyped gnawing; test: Methylphenidate antagonism in mice (stereotyped gnawing); type: in vivo, male mice (NMRI/BOM SPF)
Text: (§1) Alpha-clopenthixol and its decanoic acid ester have been tested for neuroleptic activity with standard reliable test methods. In the testing alpha- and beta-clopenthixol (alpha-CPT and beta-CPT) have been compared with a sample of clopenthixol (CPT) containing 34% alpha-CPT as determined by I.R. spectrophotometry.
Pedersen V. and A. V. Christensen: "Antagonism of methylphenidate-induced stereotyped gnawing in mice". Acta pharmacol. et toxicol. 1972, 31, 488-496.
Male mice (NMRI/BOM SPF, 18-25 g) were given an intraperitoneal dose of test compound. Two hours later 60 mg/kg of methylphenidate hydrochloride were injected subcutaneously, and immediately thereafter the animals were placed in cages, 2 mice in each cage, for 1 hour. The cages which during the experiment were placed on corrugated paper, are described under apomorphine antagonism on page 4. In this situation control mice, when given this dose of methylphenidate, will bite the corrugated paper (gnaw-compulsion). All compounds were tested at 5 dose levels using 5 pairs of mice per dose. Percentage non-biters was plotted on log.-probit paper against dose and approximate ED50 values were read from the diagrams.

[3] = test system: apomorphine-induced gnaw-compulsion; test: Apomorphine antagonism in rats (gnaw-compulsion); type: in vivo, male rats (Wistar/Af/Han/Mo)(Han 67) SPF; conditions: for ED50: apomorphine 10 mg/kg s.c. 2 h later
Text: as §1
The test method used is a slight modification of the test described by Janssen, P.A.J., Niemegeers, C.J.E. and Schellekens, K.H.L., Arzneimittel-Forschung, 1965, 15, 104-117. Male rats (Wistar/Af/Han/Mo)(Han 67) SPF, 230-270 g) were given test substance intraperitoneally (9 animals per group). Two hours later apomorphine (10 mg/kg) was injected subcutaneously and the animals were placed in individual cages for one hour. A cage consisted of a 30 cm high perspex box (12 × 25 cm), without bottom and lid, which during the experiment was placed on corrugated paper. […] Percentage non-biters was plotted on log-probit paper against dose and the ED50 was read from the diagram.

mice = test: Acute toxicity upon intravenous injection in mice; type: in vivo, male mice (NMRI/BOM SPF); conditions: i.v.; for LD50: fasted 24 hours
Protocol: (§2) Acute toxicity upon intravenous injection has been tested using groups of five male mice (NMRI/BOM SPF, 18-25 g), fasted for 24 hours. Three or four dose-levels were needed to determine LD50 values according to Miller and Tainter. Estimation of the ED50 and its error by means of logarithmicprobit graph paper.

human beings = test: Administration to human beings (neuroleptic action); type: in vivo; conditions: single intramuscular injection of about 20 - 100 mg in a light vegetable oil
Text: Alpha-clopenthixol or an ester thereof and the non-toxic acid addition salts thereof (in the following collectively called "active ingredients") may be administered to animals such as dogs, cats, horses, sheeps or the like, including human beings, both orally and parenterally, and may be used for example in the form of tablets, capsules, powders, syrups or in the form of the usual sterile solutions for injection. Results upon administration to human beings have been very gratifying.
Results upon administration to human beings of the compositions of the invention have been very gratifying. Preferably, however, the compositions are in the form of sterile solutions or suspensions for injection, and in a preferred embodiment of the invention injectable solutions may be prepared from a non-toxic injectable fat or oil, e.g. light vegetable oil, sesam oil, olive oil, arachis oil or ethyl oleate, and they may additionally contain gelling agents, e.g. aluminium stearate, to delay absorption within the body. Such oily solutions have a very prolonged activity when […] intramuscularly, and satisfactory neuroleptic action has been produced by a single intramuscular injection of about 20 - 100 mg of Lu 8- 008 dissolved in a light vegetable oil for as long as 2-4 weeks.

[4] = Acute toxicity upon intravenous injection in mice; type: in vivo, male mice (NMRI/BOM SPF); conditions: mouse, in vivo, iv, fasted 24 hours
Protocol: as §2

[5] = dogs, 10 mg/kg s.c., aqueous solution
[6] = dogs, 10 mg/kg s.c., depot-preparation
[7] = dogs, both dose levels (10 and 20 mg/kg s.c.)

For `CN1CCc2cccc3c2[C@H]1Cc1ccc(O)c(O)c1-3` [apomorphine], the minimal effective dose ([1]; Canis lupus familiaris, iv, Beagle dogs, read-out: threshold-dose of apomorphine for provoking vomiting) was 0.025 mg/kg.

With `OCCN1CCN(CCC=C2c3ccccc3Sc3ccc(Cl)cc32)CC1` [beta-CPT, beta-isomer of 2-chloro-9-[3'-(N'-2-hydroxyethylpiperazino-N)-propylidene]-thiaxanthene] the “inhibition of methylphenidate-induced compulsive gnawing, in words” value ([2]; 20 mg/kg i.p.) was “complete inhibition”, the “inhibition of methylphenidate-induced compulsive gnawing, in words” value ([2]; doses higher and lower than 20 mg/kg i.p.) was “only partial inhibition” and the “apomorphine antagonism, in words” value ([3]; doses as high as 80 mg/kg i.p.) was “almost completely inactive”. The “acute toxicity compared, in words” value (mice; vs alpha-isomer and the mixture) was “somewhat less toxic than the alpha-isomer and the mixture”.

With `Cl.Cl.OCCN1CCN(CCC=C2c3ccccc3Sc3ccc(Cl)cc32)CC1` [CPT 2 HCl, 2-chloro-9-[3'-(N'-2-hydroxyethylpiperazino-N)-propylidene]-thiaxanthene] the “% Non-biters” value ([2]; 0.63 mg/kg i.p.) was 20%, the “% Non-biters” value ([2]; 1.25 mg/kg i.p.) was 60% and the “% Non-biters” value ([2]; 2.5 mg/kg i.p.) was 80%. The “% Non-biters” value ([2]; 5 mg/kg i.p.) was 100%, the “% Non-biters” value ([2]; 10 mg/kg i.p.) was 100% and the “ED50 (approximate)” value ([2]; i.p., methylphenidate hydrochloride 60 mg/kg s.c. 2 h later) was 1.2 mg/kg i.p. The “% Non-biters” value ([3]; 2.5 mg/kg i.p.) was 33%, the “% Non-biters” value ([3]; 5 mg/kg i.p.) was 44% and the “% Non-biters” value ([3]; 10 mg/kg i.p.) was 67%. For the same compound, the “% Non-biters” value ([3]; 20 mg/kg i.p.) was 78%, the ED50 ([3]; i.p.) was 5.5 mg/kg i.p and the LD50 (mice) was 111 ± 10 mg/kg i.v. For the same compound, the “duration of protection against apomorphine” value ([1]; dogs, 10 mg/kg s.c.) was 3 days, the “duration of heavy sedation” value [1, 5] was “about 24 hours” and the “time p.i. at which maximal protection against apomorphine was afforded” value [1, 5] was 4 h. For the same compound, the “maximal level of protection against apomorphine (times threshold)” value ([1]; dogs, 10 mg/kg s.c., aqueous solution, 4 hours p.i.) was “about 16 times threshold”, the “protection against apomorphine at day 3” value ([1]; dogs, 10 mg/kg s.c., aqueous solution, day 3) was “restricted to the threshold dose of apomorphine” and the “protection against apomorphine at day 4” value ([1]; dogs, 10 mg/kg s.c., aqueous solution, day 4) was “returned to control level”. The sedation ([1]; dogs, 10 mg/kg s.c., aqueous solution, from 4 h p.i.) was “heavily sedated”.

For `CCCCCCCCCC(=O)OCCN1CCN(CCC=C2c3ccccc3Sc3ccc(Cl)cc32)CC1` [Lu 8-008, alpha-isomer of the decanoic acid ester of 2-chloro-9-[3'(N'-2-hydroxyethylpiperazino-N)-propylidene]-thiaxanthene], the “duration of protection against apomorphine” value ([1]; dogs, 10 mg/kg s.c.) was 14 days, the “maximal level of protection (times threshold dose of apomorphine)” value ([1]; dogs, 10 mg/kg s.c., 5% solution) was 2 times threshold and the “maximal level of protection (times threshold dose of apomorphine)” value ([1]; dogs, 10 mg/kg s.c., 10% solution) was 4 times threshold. For the same compound, the sedation [1, 6] was “at no time displayed any signs of sedation”, the “time course of protection level” value [1, 6] was “reached smoothly during the first week p.i., and then declined smoothly during the second week” and the “prolongation of the protection against apomorphine, in words” value ([1]; dogs, 10 mg/kg s.c., depot-preparation, 5% or 10% solution) was “considerable prolongation of the protection against apomorphine”. For the same compound, the “duration of protection against apomorphine” value ([1]; dogs, 20 mg/kg s.c., depot-preparation) was 3 weeks, the “maximal level of protection (times threshold)” value ([1]; dogs, 20 mg/kg s.c., during the first week) was 8 times threshold and the sedation ([1]; dogs, 20 mg/kg s.c., first week) was “slightly sedated”. The “duration of protection, 10% solution compared with 5% solution” value [1, 7] was “the duration was equal”, the “maximal protection, 10% solution compared with 5% solution” value [1, 7] was “higher and/or more persisting maximal protection against apomorphine” and the “duration of satisfactory neuroleptic action” value (human beings) was 2-4 weeks.

With `OCCN1CCN(CCC=C2c3ccccc3Sc3ccc(Cl)cc32)CC1` [alpha-CPT, alpha-isomer of 2-chloro-9-[3'-(N'-2-hydroxyethylpiperazino-N)-propylidene]-thiaxanthene] the “activity relative to CPT” value ([2]; i.p., vs CPT (containing 34% alpha-CPT)) was “about twice as active as CPT” and the “activity relative to CPT (times more active)” value ([3]; i.p., vs CPT) was 2- 3 times.

In the case of `OCCN1CCN(CCC=C2c3ccccc3Sc3ccc(Cl)cc32)CC1` [alpha-CPT 2 HCl, alpha-isomer of 2-chloro-9-[3'-(N'-2-hydroxyethylpiperazino-N)-propylidene]-thiaxanthene], the “% Non-biters” value ([2]; 0.31 mg/kg i.p.) is reported as 20%, the “% Non-biters” value ([2]; 0.63 mg/kg i.p.) is reported as 60% and the “% Non-biters” value ([2]; 1.25 mg/kg i.p.) is reported as 60%. The “% Non-biters” value ([2]; 2.5 mg/kg i.p.) was 100%, the “% Non-biters” value ([2]; 5 mg/kg i.p., 5 mg/kg) was 100% and the ED50 ([2]; Mus musculus, ip, methylphenidate hydrochloride 60 mg/kg s.c. 2 h later, read-out: ED50 (approximate)) was 0.65 mg/kg. The “% Non-biters” value ([3]; 1.25 mg/kg i.p.) was 11%, the “% Non-biters” value ([3]; 2.5 mg/kg i.p.) was 44% and the “% Non-biters” value ([3]; 5 mg/kg i.p.) was 100%. The “% Non-biters” value ([3]; 10 mg/kg i.p., 10 mg/kg) was 100%, the ED50 ([3]; Rattus norvegicus, ip, read-out: ED50) was 2.4 mg/kg and the LD50 [4] was 105 ± 10 mg/kg.

For `OCCN1CCN(CCC=C2c3ccccc3Sc3ccc(Cl)cc32)CC1` [beta-CPT 2 HCl], the “% Non-biters” value ([2]; 5 mg/kg i.p., 5 mg/kg) was 60%, the “% Non-biters” value ([2]; 10 mg/kg i.p.) was 20% and the “% Non-biters” value ([2]; 20 mg/kg i.p.) was 100%. The “% Non-biters” value ([2]; 40 mg/kg i.p.) was 80%, the “% Non-biters” value ([2]; 80 mg/kg i.p.) was 80% and the “% Non-biters” value ([3]; 10 mg/kg i.p., 10 mg/kg) was 11%. For the same compound, the “% Non-biters” value ([3]; 20 mg/kg i.p.) was 0%, the “% Non-biters” value ([3]; 40 mg/kg i.p.) was 11% and the “% Non-biters” value ([3]; 80 mg/kg i.p.) was 11%. For the same compound, the ED50 ([3]; i.p.) was “none” and the LD50 (mice) was 134 ± 10 mg/kg i.v.
